Read-outs that look alike come from different tables or passages of the source.
How the values were obtained:
[1] = test system: Human leukemia HL60 cells; assay: MTT assay, proliferation of human leukemia HL60 cells; type: cell-based; conditions: for IC50: read-out: IC50 against HL60 cells
Protocol: (§1) The survival rate of cells was determined by MTT assay, which is based on the metabolic reduction of 3-(4,5-dimethyl-2thiahiazoyl)-3,5-di-phenyl-tetrazolium bromide (MTT) by viable cells. MTT is a yellow compound, a dye that accepts hydrogen ion, which can act on the respiratory chain in the mitochondria of viable cells. Under the action of succinate dehydrogenase and cytochrome C, the tetrazolium ring was cleaved to form blue Formazan crystals, and the amount of Formazan crystals generated was only proportional to the number of the viable cells. The enzymes disappeared in dead cells, so Formazan crystals could not be dissolved in MTT solution containing 20% sodium dodecyl sulfate (pH 4.7).
(§2) The cells in the logarithmic growth phase were selected and adjusted to an appropriate cell density, seeded in a 96-well plate, 100 μl/well, and cultured in a 37° C., 5% CO2 incubator. The cells were allowed to adhere overnight, then the culture medium was replaced and the drug was added to cultivate for 48 h. A blank control group, a drug administration group and a positive control group were set, with four repeats in each group.
(§3) After 48 h of drug treatment, the cells were incubated with 0.25 mg/ml MTT at 37° C. for 3-4 h, and 100 μl of dimethyl sulfoxide (DMSO) was added to each well after aspirating the culture solution.

[2] = test system: Human cutaneous T-cell lymphoma Hut102 cells; assay: MTT assay, proliferation of human cutaneous T-cell lymphoma Hut102 cells; type: cell-based
Protocol: as §1, §2, §3

[3] = test system: APP/PS1 transgenic mice; assay: Morris water maze test (oriented navigation and probe test); type: in vivo; conditions: 100 mg/kg
Protocol: The drugs were administered three days after the adaptive feeding. Peanut oil was used as the solvent. The drug was intragastric administered once a day for 15 days. On the 6th to 9th day after the administration, the new object identification test was performed. On the 10th day, the Y-maze test was performed. On the 11th to 15th day, the Morris water maze test was performed to determine the improvement of learning and memory. The administration of the drugs was continued during the behavioral experiment until the animals were sacrificed (16th day).
The experimental device includes a black circular pool with a diameter of 100 cm and a height of 40 cm, and a white platform (safe platform) having a diameter of about 10 cm. The location of the safe platform could be moved. Morris Water Maze Video Detection and Analysis System was provided by the Institute of Materia Medica, China Academy of Medical Sciences. One day before the experiment, water was injected into the black circular pool (water temperature 22±1° C.), and white pigment was added to mix uniformly. The water surface was usually about 1 cm higher than the top of the safe platform. The pool was divided into four quadrants I, II, III and IV, and the safe platform was usually placed in the middle of the quadrant IV. The experiment was divided into two parts: (1) Oriented navigation: the animal grouping was input into a computer software in advance. The position of the safe platform was kept unchanged during the experiment. During the test, the experimental animal facing the pool wall was placed in the water from different inlets, and the computer simultaneously collected data and recorded the time to find the safe platform (escape latency). Data collection automatically stopped when the animal stayed on the safe platform for 10 s. The data acquisition time of the mouse was 60 s. If the animal could not find the safe platform within the specified time, the escape latency was recorded as 60 s. At the same time, the operator induced the animal to reach the safe platform and stay for 10 s. The animal was trained twice a day for 4 consecutive days. (2) Probe test: after the oriented navigation test is completed, the safe platform is removed and the animal was placed in the pool free to explore for 60 s. The camera system automatically recorded the time and distance of the experimental animal swimming in the quadrant of the safe platform within the specified time and the number of times passing through the location of the safe platform.

[4] = test system: APP/PS1 transgenic mice; assay: Nesting experiment; type: in vivo; conditions: at 12 h
Excerpt: Each mouse was separately housed in a cage. On the first day of the test, two pieces of cotton (5 cm×5 cm) were placed in the cage. […]

[5] = test system: RXR; assay: Verification of RXR target, dual-luciferase reporter in transfected 293T cells; type: cell-based, Human; conditions: 20 nM, 48 h; for Relative activity (RXR): relative to CON = 1; for Flu (firefly luciferase signal) / Flu/Rlu / Rlu (Renilla luciferase signal): transfected 293T cells
[6] = test system: HDAC; assay: Verification of HDAC target, HDAC fluorometric activity assay on A549 cell lysate; conditions: 20 μM, Mean
Protocol: All the compounds were prepared into mother liquors with the same concentration (100 mmol/L) and stored at a temperature of −20° C. […] The DMSO sample was tested at a final concentration of 1%.
A substrate containing an acetylated lysine chain was added to the sample (cell lysate buffer), and the active HDAC in the sample deacetylated the lysine chain on the substrate to activate the substrate. Further, a lysine luminescent reagent is added to generate fluorescence, and the signal was recorded by a microplate reader to indicate the activity of HDAC in the sample.
2) Detection Method • a) Dissolving 50 μg untreated A549 cell lysate in 85 μL (final volume) ddH2O. For the positive blank group, adding 2 μL HeLA nuclear extract first, following by adding 83 μL ddH2O. In the negative blank group, by adding 2 μL Trichostatin A and 83 μL ddH2O. • b) Adding 10 μL 10× buffer to each well. • c) Adding 5 μL HDAC fluorogenic substrate to each well, and adding the drug to make the final concentration reach the set concentration, mixing well, and incubating at 37° C. for 30 min. • d) Adding 10 μL lysine developer, mixing well, then stopping the reaction, incubating for 30 min at 37° C. • e) Detecting the fluorescence value by the microplate reader (condition: emission wavelength/excitation wavelength is 350-380/440-460 nm).

[7] = Homo sapiens, HL-60, read-out: Inhibitive rate (%) against HL60 cells
[8] = Homo sapiens, HL-60, 0.01 μmol/L, Mean ± SE, read-out: Inhibitive rate (%) against HL60 cells
[9] = Homo sapiens, HL-60, 0.1 μmol/L, Mean ± SE, read-out: Inhibitive rate (%) against HL60 cells
[10] = Homo sapiens, HL-60, 1 μmol/L, Mean ± SE, read-out: Inhibitive rate (%) against HL60 cells
[11] = Homo sapiens, HL-60, 10 μmol/L (rescreening), Mean ± SE, read-out: Inhibitive rate (%) against HL60 cells
[12] = Homo sapiens, HL-60, 48 h, 10 μM, 48 h, Mean ± SE, read-out: Inhibitive rate (%) against HL60 cells
[13] = Homo sapiens, HL-60, 48 h, MTT, 48 h
[14] = HuT-102, 10 μM, Mean ± SE, read-out: Inhibitive rate (%) against Hut102 cells

For C=C(c1ccc(C(=O)O)cc1)c1cc2c(cc1C)C(C)(C)CCC2(C)C [BEXA, bexarotene, reference compound], the IC50 ([1]; Homo sapiens, HL-60, 48 h) was 6.31 ± 0.7 µM, the inhibition at 10 µM ([1]; Homo sapiens, HL-60, 48 h, read-out: Inhibitive rate (%) against HL60 cells) was 4 ± 1.14% and the inhibition at 0.01 µM [1, 7] was 16.5 ± 1.66%. For the same compound, the inhibition at 0.1 µM [1, 7] was 15.1 ± 1.44%, the inhibition at 1 µM [1, 7] was 65.5 ± 1.72% and the inhibition at 10 µM [1, 7] was 80.88 ± 0.63%. For the same compound, the inhibition at 10 µM ([2]; HuT-102, read-out: Inhibitive rate (%) against Hut102 cells) was 6.41 ± 4.1%, the “Escape latency vs model group” value ([3]; third and fourth days of training) was “significantly reduced” and the “Number of times traversing the safe platform vs model group” value ([3]; probe test) was “significantly increased”. For the same compound, the “Percentage of the swimming distance in the target quadrant vs model group” value ([3]; probe test) was “significantly increased”, the “Swimming time in the target quadrant vs model group” value ([3]; probe test) was “significantly increased” and the “Nesting ability vs model group” value ([4]; 100 mg/kg) was “significantly increased”.

For CC1(C)CCC(C)(C)c2c1cc1c(c2NC(=O)c2ccc(C(=O)NCCN)cc2)C(C)(C)CCC1(C)C [OAA-6, N-(2-amino) ethyl-4-[(1,1,4,4,5,5,8,8-octamethyl-1,2,3,4,5,6,7,8-octahydro-9-anthryl)carbamoyl] benzamide], the inhibition at 0.01 µM [1, 8] was 1.2 ± 0.27%, the inhibition at 0.1 µM [1, 9] was 13.4 ± 1.5% and the inhibition at 1 µM [1, 10] was 76.73 ± 0.07%. For the same compound, the inhibition at 10 µM [1, 11] was 79.74 ± 0.46%, the inhibition at 10 µM [1, 12] was > 50% and the IC50 [1, 13] was < 10 µM. The IC50 ([1]; MTT, 48 h) was 5.63 ± 1.14 µM, the inhibition at 10 µM [2, 14] was 23.9 ± 1.03% and the “Relative activity (RXR)” value [5] was 1.47. For the same compound, the “Flu (firefly luciferase signal)” value [5] was 452598, the Flu/Rlu [5] was 2.59 and the “Rlu (Renilla luciferase signal)” value [5] was 174827. For the same compound, the “Inhibitive rate of HDAC activity of A549 cells” value (“Inhibitive rate” below) [6] was −11.07%.

Work on CC1(C)CCC(C)(C)c2c1cc1c(c2NC(=O)c2ccc(NC(=O)NCCCC(=O)O)cc2)C(C)(C)CCC1(C)C [OAB-7, 1-(4-carboxypropyl)-3-{4-[(1,1,4,4,5,5,8,8-octamethyl-1,2,3,4,5,6,7,8-octahydro-9-anthryl)carbamoyl]phenyl} urea] yielded an inhibition at 10 µM [1, 12] of 1.76 ± 1.41% and an inhibition at 10 µM [2, 14] of 5.6 ± 3%.

COC(=O)Nc1ccc(C(=O)Nc2c3c(cc4c2C(C)(C)CCC4(C)C)C(C)(C)CCC3(C)C)cc1 [OAB-8, 4-[(1,1,4,4,5,5,8,8-octamethyl-1,2,3,4,5,6,7,8-octahydro-9-anthryl)carbamoyl] methyl Phenylcarbamate] showed an inhibition at 10 µM [1, 12] of 7.24 ± 4.74% and an inhibition at 10 µM [2, 14] of -1.05 ± 3.08%.

Compound CC1(C)CCC(C)(C)c2c1cc1c(c2NC(=O)c2ccc(NC(=O)N3CCC(C(=O)O)CC3)cc2)C(C)(C)CCC1(C)C [OAB-9, N-{4-[(1,1,4,4,5,5,8,8-octamethyl-1,2,3,4,5,6,7,8-octahydro-9-anthryl)carbamoyl]phenylcarbamoyl}-4-piperidinyl Formic Acid] has an inhibition at 10 µM [1, 12] of 8.03 ± 1.07% and an inhibition at 10 µM [2, 14] of -0.3 ± 1.13%.

In the case of CC1(C)CCC(C)(C)c2c1cc1c(c2NC(=O)c2ccc(NC(=O)Nc3ccccc3O)cc2)C(C)(C)CCC1(C)C [OAB-10, 1-(2-hydroxyphenyl)-3-{4-[(1,1,4,4,5,5,8,8-octamethyl-1,2,3,4,5,6,7,8-octahydro-9-anthryl)carbamoyl]phenyl} urea], the inhibition at 10 µM [1, 12] is reported as 7.21 ± 0.96% and the inhibition at 10 µM [2, 14] is reported as 17.1 ± 0.93%.

Compound CCN(CC)CCNC(=O)Nc1ccc(C(=O)Nc2c3c(cc4c2C(C)(C)CCC4(C)C)C(C)(C)CCC3(C)C)cc1 [OAB-12, 1-[2-(N,N-diethylamino)]ethyl-3-{4-[(1,1,4,4,5,5,8,8-octamethyl-1,2,3,4,5,6,7,8-octahydro-9-anthryl)carbamoyl]phenyl} urea] has an inhibition at 0.01 µM [1, 8] of 8.96 ± 1.45%, an inhibition at 0.1 µM [1, 9] of 11.8 ± 1.33% and an inhibition at 1 µM [1, 10] of 73 ± 1.31%. For the same compound, the inhibition at 10 µM [1, 11] was 78.94 ± 0.42%, the inhibition at 10 µM [2, 14] was 43.7 ± 3.98% and the “Relative activity (RXR)” value [5] was 0.85. The “Flu (firefly luciferase signal)” value [5] was 4013, the Flu/Rlu [5] was 1.49 and the “Rlu (Renilla luciferase signal)” value [5] was 2686. The “Inhibitive rate” value [6] was 4.17%.

For CN(C)CCNC(=O)Nc1ccc(C(=O)Nc2c3c(cc4c2C(C)(C)CCC4(C)C)C(C)(C)CCC3(C)C)cc1 [OAB-13, 1-[2-(N,N-dimethylamino)]ethyl-3-{4-[(1,1,4,4,5,5,8,8-octamethyl-1,2,3,4,5,6,7,8-octahydro-9-anthryl)carbamoyl]phenyl} urea], the inhibition at 0.01 µM [1, 8] was 12.6 ± 0.7%, the inhibition at 0.1 µM [1, 9] was 11.4 ± 0.88% and the inhibition at 1 µM [1, 10] was 53.3 ± 1.22%. The inhibition at 10 µM [1, 11] was 79.93 ± 0.16%, the IC50 [1, 13] was < 10 µM and the IC50 ([1]; MTT, 48 h) was 6.65 ± 2.93 µM. The inhibition at 10 µM [2, 14] was 39.8 ± 0.81%, the “Relative activity (RXR)” value [5] was 1.11 and the “Flu (firefly luciferase signal)” value [5] was 76228. The Flu/Rlu [5] was 1.95, the “Rlu (Renilla luciferase signal)” value [5] was 39025 and the “Inhibitive rate” value [6] was 3.19%.

Compound CC1(C)CCC(C)(C)c2c1cc1c(c2NC(=O)c2ccc(NC(=O)NO)cc2)C(C)(C)CCC1(C)C [OAB-15, 1-hydroxy-3-{4-[(1,1,4,4,5,5,8,8-octamethyl-1,2,3,4,5,6,7,8-octahydro-9-anthryl)carbamoyl]phenyl} urea] has an inhibition at 10 µM [1, 12] of 0.59 ± 1.44% and an inhibition at 10 µM [2, 14] of 2.3 ± 3.26%.

For CC1(C)CCC(C)(C)c2c1cc1c(c2NC(=O)c2ccc(NC(=O)ON)cc2)C(C)(C)CCC1(C)C [OAB-16, 4-[(1,1,4,4,5,5,8,8-octamethyl-1,2,3,4,5,6,7,8-octahydro-9-anthryl)carbamoyl] phenyl Carbamic Acid-O-Amino Ester], the inhibition at 10 µM [1, 12] was 1.67 ± 3.24% and the inhibition at 10 µM [2, 14] was 8.38 ± 2.31%.

Compound CC1(C)CCC(C)(C)c2c1cc1c(c2NC(=O)c2ccc(NC(=O)NCCO)cc2)C(C)(C)CCC1(C)C [OAB-17, 1-(2-hydroxy) ethyl-3-{4-[(1,1,4,4,5,5,8,8-octamethyl-1,2,3,4,5,6,7,8-octahydro-9-anthryl)carbamoyl]phenyl} urea] has an inhibition at 10 µM [1, 12] of 33.6 ± 0.7%, an inhibition at 10 µM [2, 14] of 9.22 ± 1.29% and a melting point of 284 to 287 °C.

Work on CC1(C)CCC(C)(C)c2c1cc1c(c2NC(=O)c2ccc(NC(=O)NCCCO)cc2)C(C)(C)CCC1(C)C [OAB-18, 1-(3-hydroxy) propyl-3-{4-[(1,1,4,4,5,5,8,8-octamethyl-1,2,3,4,5,6,7,8-octahydro-9-anthryl)carbamoyl]phenyl} urea] yielded an inhibition at 10 µM [1, 12] of 2.47 ± 2.64% and an inhibition at 10 µM [2, 14] of 4.32 ± 1.29%.

In the case of COc1cc2c(cc1OC)C(=O)C(CC1CCN(Cc3ccccc3)CC1)C2 (centres unmarked) [donepezil, reference compound], the “Nesting ability vs model group” value [4] is reported as “significantly increased”.
